Data taken from patent publication US10704097B2, “Oxidative stress and cardiovascular disease events” (KATHOLIEKE UNIVERSITEIT LEUVEN, priority 2014, dated 2020).
Marks after values point to notes of the source that are not given here.

Tests used:
[1] = test system: DKO (LDL-R−/−×ob/ob) mice; conditions: mean ± SD
Experimental: Breeding and genotyping of LDL-receptor deficient, leptin-deficient ob/ob, and DKO (LDL-R^−/−×ob/ob) mice, on the C57BL/6J background, were performed as previously described (72, 73).
To convert from mg/dL to mM, we divided glucose by 18 (=molecular weight), triglycerides by 89 and total cholesterol by 39. […] To determine glucose tolerance, glucose was measured in samples obtained by tail bleeding before and 15, 30, 60, 120 and 240 minutes after intraperitoneal administration of glucose (20% glucose solution; 2 g/kg). Plasma adiponectin […] were measured with specific mouse ELISA (R&D Systems).

Cox4i1 = Cox4i1 gene expression in aorta of DKO mice (qPCR); conditions: 12 weeks treatment, relative RNA expression, mean ± SD
Experimental: (§1) Total RNA from monocytes, macrophages and vascular tissues was extracted with TRIzol reagent (Invitrogen) and purified on (mi)RNeasy Mini Kit columns (Qiagen). […] First-strand cDNA was generated from total RNA with the SuperScript VILO cDNA synthesis kit (Invitrogen). qPCR analysis was performed on a 7500 Fast Real-Time PCR system using Fast SYBRGreen master mix, according to the supplier protocols (Applied Biosystems). […] For each RNA and microRNA sample, the expression levels of the RNAs as described herein were compared and normalized to reference housekeeping RNAs or microRNAs. […] We compared them with non-treated DKO at 24 weeks. […] Food and water were available ad libitum. […] All mice were sacrificed by Nembutal overdose at the age of 24 weeks (72, 73).

Cox1 = Cox1 gene expression in aorta of DKO mice (qPCR); conditions: 12 weeks treatment, relative RNA expression, mean ± SD
Experimental: as §1

Tfam = Tfam gene expression in aorta of DKO mice (qPCR); conditions: 12 weeks treatment, relative RNA expression, mean ± SD
Experimental: as §1

[2] = DKO mice at 24 weeks, 12 weeks treatment in diet

## CC(C)OC(=O)C(C)(C)Oc1ccc(C(=O)c2ccc(Cl)cc2)cc1 [Fenofibrate]
[1]; DKO mice, 12 weeks treatment, intraperitoneal glucose tolerance test, glucose 2 g/kg
  AUC of IPGTT: 75 ± 15 ×10^3

## CN(CCOc1ccc(CC2SC(=O)NC2=O)cc1)c1ccccn1 (centres unmarked) [Rosiglitazone, rosiglitazone]
Cox4i1
  Cox4i1 gene expression in aorta: 2.20 ± 0.64***^/$$/££
[1]; DKO mice at 24 weeks, 12 weeks treatment in diet (fenofibrate 50, rosiglitazone 10 mg/kg/day)
  Weight: 55 ± 3.6*^/$ g
[1]; DKO mice at 24 weeks, 12 weeks treatment in diet, fasting plasma
  Insulin: 69 ± 42 ^ mU/L
[1]; [2]
  TG (triglyceride): 192 ± 96 ^ mg/dl
  Total C (cholesterol): 700 ± 139*^/$$ mg/dl
[1]; DKO mice at 24 weeks, 12 weeks treatment in diet, overnight fast
  Glucose: 88 ± 18*^/$/£ mg/dl
[1]; DKO mice at 24 weeks, 12 weeks treatment in diet, plasma
  ADN (adiponectin): 16 ± 2.3***^/£££ μg/ml
[1]; DKO mice, 12 weeks treatment, fasting insulin × fasting glucose / 22.5
  HOMA-IR: 16 ± 11 ^
Cox1
  Cox1 gene expression in aorta: 1.16 ± 0.40***^/$/£££
Tfam
  Tfam gene expression in aorta: 1.57 ± 0.50***^/$/££
